# Structures can show the parent of a compound that is named as a salt.
# Test system: human hepatocytes
# Assay: Human Hepatocyte Stability Assay
# Type: in vitro ADME
# Details: comparison table, Example 12; head prints '(units)', method states L/hr/kg
# Method: The human […] stability of the compounds as predicted hepatocyte clearance in L/hr/kg was assessed. Compounds to be tested were diluted to 200 μM (4 μl of 10 mM DMSO stock into 196 μl ACN:H2O (50:50). Propranolol was used as a positive control, and buffer only without hepatocytes as 0% control. These were further diluted 4 μl with 891 μl KHB buffer (InVitroGRO catalog number Z99074) to provide 2× dosing solution. To each well of 24 well plate, 250 μl of the 2× dosing solution was added to each well with 250 μl of hepatocytes cells (1×10^6 viable cells/ml per well) or KHB for control samples to achieve a final compound concentration of 1 μM during incubation. The final solvent concentration was 0.01% DMSO and 0.25% ACN. The culture plate was placed on a rocker and incubated at 37° C., 5% CO2. Samples were collected at time 0, 1, 3, and 6 hours. The loss of parent compound was determined using LC-MS methods against a standard curve.
row,Hheps CL,SMILES
1,13.3 mL/min/kg,"Cc1ncc(-c2cn3ccnc3c(Nc3ccc(N4CCOCC4)cc3)n2)cc1N [6-(5-amino-6-methylpyridin-3-yl)-N-(4-morpholinophenyl)imidazo[1,2-a]pyrazin-8-amine, reference compound]"
2,15 mL/min/kg,"COc1ccc(Nc2nc(-c3ccc(N)nc3)cn3ccnc23)cc1OC [6-(6-aminopyridin-3-yl)-N-(3,4-dimethoxyphenyl)imidazo[1,2-a]pyrazin-8-amine, reference compound]"
3,2 mL/min/kg,"Cc1ncc(-c2cn3ccnc3c(Nc3ccc(N4CCN(C5COC5)CC4)cc3)n2)nc1N [Ex.-1, 6-(6-amino-5-methylpyrazin-2-yl)-N-(4-(4-(oxetan-3-yl)piperazin-1-yl)phenyl)imidazo[1,2-a]pyrazin-8-amine]"
4,0.917 mL/min/kg,"Nc1cncc(-c2cn3ccnc3c(Nc3ccc(N4CCN(C5COC5)CC4)cc3)n2)n1 [Ex.-2, 6-(6-aminopyrazin-2-yl)-N-(4-(4-(oxetan-3-yl)piperazin-1-yl)phenyl)imidazo[1,2-a]pyrazin-8-amine]"
5,1.3 mL/min/kg,"Cc1c(-c2cncc(N)n2)nc(Nc2ccc(N3CCN(C4COC4)CC3)cc2)c2nccn12 [Ex.-4, 6-(6-aminopyrazin-2-yl)-5-methyl-N-(4-(4-(oxetan-3-yl)piperazin-1-yl)phenyl)imidazo[1,2-a]pyrazin-8-amine]"
6,1.2 mL/min/kg,"Nc1cncc(-c2cn3ccnc3c(Nc3ccc(N4CCN(C5COC5)CC4)c(OCCO)c3)n2)n1 [Ex.-5, 2-(5-((6-(6-aminopyrazin-2-yl)imidazo[1,2-a]pyrazin-8-yl)amino)-2-(4-(oxetan-3-yl)piperazin-1-yl)phenoxy)ethanol]"
7,1.3 mL/min/kg,"Nc1cncc(-c2cn3ccnc3c(Nc3ccc(N4CCN(CC(CO)CO)CC4)cc3)n2)n1 [Ex.-6, 2-((4-(4-((6-(6-aminopyrazin-2-yl)imidazo[1,2-a]pyrazin-8-yl)amino)phenyl)piperazin-1-yl)methyl)propane-1,3-diol]"

# Further lines, the compound ahead of its results:
row,SMILES,Hheps CL
1,"COc1ccc(Nc2nc(-c3cccc(N)c3)cn3ccnc23)cc1OC [6-(3-aminophenyl)-N-(3,4-dimethoxyphenyl)imidazo[1,2-a]pyrazin-8-amine, reference compound]",4 mL/min/kg
2,"Nc1cncc(-c2cn3ccnc3c(Nc3ccc(N4CCOCC4)cc3)n2)c1 [6-(5-aminopyridin-3-yl)-N-(4-morpholinophenyl)imidazo[1,2-a]pyrazin-8-amine, reference compound]",11.3 mL/min/kg
3,"Nc1cncc(-c2cn3ccnc3c(Nc3ccc(N4CCO[C@@H](CO)C4)cc3)n2)n1 [Ex.-3, (R)-(4-(4-((6-(6-aminopyrazin-2-yl)imidazo[1,2-a]pyrazin-8-yl)amino)phenyl)morpholin-2-yl)methanol]",1.5 mL/min/kg
4,"Cc1ncc(-c2cn3ccnc3c(Nc3ccc(N4CCN(C5COC5)CC4)c(OCCO)c3)n2)nc1N [Ex.-7, 2-(5-((6-(6-amino-5-methylpyrazin-2-yl)imidazo[1,2-a]pyrazin-8-yl)amino)-2-(4-(oxetan-3-yl)piperazin-1-yl)phenoxy)ethanol]",0.83 mL/min/kg

# Test system: not given
# Assay: not given
# Details: cited from earlier work
row,SMILES,solubility in methanol
1,"CC[C@]1(O)C[C@H]2CN(CCc3c([nH]c4ccccc34)[C@@](C(=O)OC)(c3cc4c(cc3OC)N(C=O)[C@H]3[C@@](O)(C(=O)OC)[C@H](OC(C)=O)[C@]5(CC)C=CCN6CC[C@]43[C@@H]65)C2)C1 [Vincristine Sulfate, vincristine sulfate]",soluble

# Reference: patent publication US9931338B2, “Syk inhibitors” (Gilead Sciences, Inc., priority 2014, dated 2018)
